From ChEMBL document CHEMBL3091447, “The effect of pyridyl substituents on the thermodynamics of porphyrin binding to G-quadruplex DNA” (Bioorg Med Chem, 2013)
Calls of active or inactive are those of the source. The calls are words filed in the database; no cut-off is given here.

Columns and labels:
[1] = species: Homo sapiens; test: Binding affinity to WT 27-mer Bcl-2 G-quadruplex DNA (unknown origin) at 40 uM by electrospray ionization mass spectra analysis
[2] = species: Homo sapiens; test: Binding affinity to Bcl-2 G-quadruplex DNA (unknown origin) at compound/DNA ratio 2:1 by CD spectral analysis
[3] = species: Homo sapiens; test: Binding affinity to WT 27-mer Bcl-2 G-quadruplex DNA (unknown origin) at compound/DNA ratio 1 to 4 by CD spectral analysis
[4] = species: Homo sapiens; test: Binding affinity to WT 27-mer Bcl-2 G-quadruplex DNA (unknown origin) at 5 uM by isothermal titration calorimetric assay

SMILES: C[n+]1ccc(-c2c3nc(cc4ccc(cc5nc(cc6ccc2[nH]6)C=C5)[nH]4)C=C3)cc1
- Activity [1]: inactive

SMILES: C[n+]1ccc(-c2c3nc(c(-c4cc[n+](C)cc4)c4ccc([nH]4)c(-c4cc[n+](C)cc4)c4ccc([nH]4)c(-c4cc[n+](C)cc4)c4nc2C=C4)C=C3)cc1
- Activity [2]: Active

SMILES: C[n+]1ccc(-c2c3nc(cc4ccc(cc5nc(c(-c6cc[n+](C)cc6)c6ccc2[nH]6)C=C5)[nH]4)C=C3)cc1
- Activity [1]: inactive

SMILES: C[n+]1ccc(-c2c3nc(c(-c4cc[n+](C)cc4)c4ccc([nH]4)c(-c4cc[n+](C)cc4)c4nc(cc5ccc2[nH]5)C=C4)C=C3)cc1
- Activity [2]: Active
- Activity [3]: Active
- Activity [4]: Active
- Activity [1]: Active

SMILES: C[n+]1ccc(-c2c3nc(cc4ccc([nH]4)c(-c4cc[n+](C)cc4)c4nc(cc5ccc2[nH]5)C=C4)C=C3)cc1
- Activity [2]: Active
- Activity [4]: Active
- Activity [1]: Active
